These results are taken from patent US20100004159A1, “SUBSTITUTED IMIDAZOLONE DERIVATIVES, PREPARATIONS AND USES” (GENFIT, priority 2006, published 2010).

One experiment deals with PPARs target genes. In words: Expression of PPAR target genes by quantitative RT-PCR in db/db mouse tissue. The conditions noted are these: db/db mice, 50 mpk for 28 days. The experiment is classed as in vivo. How it is done:
Samples of hepatic tissue and adipose epididymal tissue were taken and frozen immediately in liquid nitrogen then conserved at −80° C. for later analysis.
Total RNA was extracted from liver fragments by using a NucleoSpine 96 RNA kit (Macherey Nagel, Hoerdt, France) according to the manufacturer's instructions.
The total RNA of the adipose tissue was extracted from tissue fragments with a method using guanidine thiocyanate. The tissues were briefly homogenized in 5 mL of a lysis buffer (guanidine thiocyanate 4M, EDTA pH8 10 mM, Tris HCl pH 7.5 50 mM and b-mercaptoethanol 1.4%) using polytron. To separate the layers, 500 μL of sodium acetate 2M pH4, 5 mL of phenol, and 2 mL of a mixture of chloroform/isoamylic alcohol (49:1) were added. After centrifugation, the aqueous layer was collected and the RNA was precipitated in the presence of isopropanol. After a second precipitation, the RNA was washed with ethanol 70°, dried, then suspended again in an volume of water free of RNase. A step of purification/DNase I treatment of the RNA was then carried out by using NucleoSpin® 96 RNA kit (Macherey-Nagel) according to the manufacturer's instructions. 1 μg of total RNA (quantified by using the Ribogreen RNA quantification kit (Molecular Probes)) was then reverse-transcribed into cDNA by means of a 1 hour reaction at 37° C. in a total volume of 20 μl containing a buffer 1× (Sigma), 1.5 mM of DTT, 0.18 mM, of dNTPs (Promega), 200 ng of pdN6 (Amersham), 30 U of RNase inhibitor (Sigma), and 1 μl of MMLV-RT (Sigma). The quantitative PCR experiments were carried out using the MyiQ Single-Color Real-Time PCR Detection System (Biorad, Marnes-la-Coquette, France) and were performed using the iQ SYBR Green Supermix kit according to the manufacturer's recommendations, in 96-well plates in 5 μl of a diluted reverse transcription solution at a hybridization temperature of 55° C. Primer pairs specific to the studied genes were used:
The quantity of emitted fluorescence is directly proportional to the quantity of cDNA present at the beginning of the reaction and amplified during the PCR. For each target studied, a range of solutions is performed with successive dilutions of a mixture made up of a few μl of different reverse-transcription solutions. The relative levels of expression of each target are thus determined by using efficiency curves obtained with the points relative to the range.
The expression levels of the genes of interest were then normalized, in the hepatic tissue with respect to the level expression of reference gene 36B4 (whose specific primers are: sense primer: 5′-[…]-3′ (SEQ ID NO: 15) and antisense primer: 5′-[…]-3′ (SEQ ID NO: 16)), and in the adipose tissue with respect to reference gene 18S (whose specific primers are: sense primer: 5′-[…]-3′ (SEQ ID NO: 17) and antisense primer: 5′-[…]-3′ (SEQ ID NO: 18)). The induction factor was then calculated for each sample. The higher the induction factor is, the more the compound promotes gene expression. The final result is represented as the average of the induction values within each experimental group.

The subject of experiment [1] is Wistar rats under repeated administrations of angiotensin II. In words: Arterial pressure of Wistar rats under repeated administration of angiotensin II. The experiment is classed as in vivo, rat. The conditions noted are these: angiotensin II boluses 50, 100 and 200 ng/kg; single intravenous dose 20 mpk. How it is done:
This experimental procedure is intended to show the anti-hypertensive effects of the compounds according to the invention in Wistar rats in which hypertension is induced either by continuous intravenous administration of angiotensin II (example 21.1) or by repeated intravenous administration of angiotensin II (example 21.2). The animals were treated with the compounds according to the invention intravenously at increasing doses. To validate the study, the control animals were administered, in the same conditions, either the vehicle itself or a reference.
Wistar rats (males—200-250 g—5-6 weeks old—CERJ) were anesthetized for surgery using pentobarbital (50 mg/kg). A catheter was placed in the right jugular vein for angiotensin II administration. A catheter was placed in the left jugular vein the administration of the compounds according to the invention. Boluses of angiotensin II were performed at predetermined intervals by the experimenter using a manual syringe.
The arterial pressure of the animal was measured for a few minutes at basal conditions; then three successive intravenous administrations of angiotensin II (50, 100, and 200 ng/kg) were performed. At every bolus of angiotensin II, the average arterial pressure, expressed in mm of Hg, increased in a very temporary way. […]

Structures are written as SMILES.

Consider `CCCCC1=NC2(CCCC2)C(=O)N1Cc1ccc(-c2cccc(OC(C)(C)C(=O)O)c2)cc1` [Compound 1, 2-butyl-1-[(3′-((1-carboxy-1,1-dimethylmethyl)oxy)biphenyl-4-yl)methyl]-4-spirocyclopentyl-1H-imidazol-5(4H)-one], for which, in the experiment with PPARs target genes, the “hepatic expression of the gene coding for CPT1 b” value is reported as “significant increase” and the “hepatic expression of the gene coding for PDK-4” value is “significant increase”. Also, in the experiment with PPARs target genes (liver), the “expression of the gene coding for ApoCIII” value is on record as “significant decrease” and the “expression of the gene coding for FBb” value is recorded as “significant decrease”. Besides, in experiment [1], the “difference of arterial pressure: antagonist effect on angiotensin II” value is on record as “antagonist effect on angiotensin II”.
